The test system of one data set is Spodoptera frugiperda. The data set can be described thus: Spodoptera frugiperda test (SPODFR spray treatment). The class given is in vivo. The settings on record: maize leaf discs, after 7 days. The procedure, abridged: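 Maize leaf discs sprayed with active ingredient formulated in acetone/dimethylformamide with emulsifier, diluted in emulsifier-containing water to the desired concentration. After drying, discs were populated with armyworm caterpillars. Efficacy (%) scored after 7 days: 100% all caterpillars killed, 0% none killed.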

Another data set can be described thus: logP (HPLC-MS). The format is physicochemical. The settings on record: HPLC, reversed-phase column (C18), 43° C.
A further data set relates to Ctenocephalides felis. The data set can be described thus: Ctenocephalides felis oral (CTECFE). The format is in vivo. The conditions noted are these: application rate 100 ppm in citrated cattle blood; after 2 days. An outline of the steps:
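About 20 unfed adult fleas fed through a Parafilm membrane on citrated cattle blood containing the compound at the desired concentration, diluted from a DMSO concentrate. Kill in % was scored after 2 days, where 100% means all fleas dead and 0% none.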

The next data set concerns Tetranychus urticae. Briefly: Tetranychus test, OP-resistant (TETRUR spray treatment). The format is in vivo. The conditions noted are these: bean leaf discs, after 6 days. An outline of the steps: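 Bean leaf discs infested with all stages of OP-resistant T. urticae sprayed with compound formulated in acetone/DMF plus alkylaryl polyglycol ether emulsifier, diluted in water. Efficacy (% mites killed) scored after 6 days.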

The subject of a further data set is Lucilia cuprina larvae. The data set can be described thus: Lucilia cuprina test (LUCICU). The class given is in vivo. The conditions noted are these: application rate 100 ppm; treated horse meat; after 2 days. An outline of the steps:
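About 20 Lucilia cuprina larvae placed on horse meat treated with compound formulation (DMSO concentrate diluted in water). Kill (%) scored after 2 days, 100% meaning all larvae dead.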

In the next data set the test system is Boophilus microplus. Briefly: Boophilus microplus test (BOOPMI injection). The settings on record: application rate 20 μg/animal; injected into the abdomen; after 7 days. The class given is in vivo. The procedure, abridged: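 Active ingredient dissolved in DMSO (10 mg in 0.5 ml, then diluted to the test concentration) and injected into the abdomen of Boophilus microplus ticks. Ticks kept in dishes in a climate-controlled room for 7 days. Efficacy (%) is based on laying of fertile eggs; 100% means no tick laid fertile eggs.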

For another data set, the system named is adult Musca domestica. The data set can be described thus: Musca domestica test (MUSCDO). The format is in vivo. The settings on record: application rate 100 ppm; treated sponge; after 2 days. The method, then: Musca domestica Test (MUSCDO) Solvent: dimethyl sulphoxide To prepare an appropriate active ingredient formulation, 10 mg of active ingredient are mixed with 0.5 ml of dimethyl sulphoxide and the concentrate is diluted with water to the desired concentration. Vessels containing a sponge treated with the active ingredient formulation of the desired concentration are populated with adult Musca domestica. After 2 days, the kill in % is determined 100% means that all of the flies have been killed; 0% means that none of the flies have been killed.

The test system of another data set is Phaedon cochleariae. Briefly: Phaedon test (PHAECO spray treatment). The conditions noted are these: Chinese cabbage leaf discs, after 7 days. The class given is in vivo. An outline of the steps: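 Chinese cabbage leaf discs were sprayed with compound in acetone/DMF with emulsifier, diluted in water to the test concentration. After drying, discs were infested with mustard beetle larvae. Efficacy in % was scored after 7 days, where 100% means all larvae were killed and 0% means none.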

The next data set deals with Myzus persicae. The data set can be described thus: Myzus test (MYZUPE spray treatment). The format is in vivo. The settings on record: Chinese cabbage leaf discs, after 6 days. The method, then:
Myzus Test (MYZUPE Spray Treatment) Solvent: 78 parts by weight of acetone • • 1.5 parts by weight of dimethylformamide Emulsifier: 0.5 part by weight of alkylaryl polyglycol ether To produce an appropriate active ingredient formulation, 1 part by weight of active ingredient is mixed with the stated amounts of solvent and emulsifier, and the concentrate is diluted with emulsifier-containing water to the desired concentration. Leaf discs of Chinese cabbage (Brassica pekinensis) infested by all stages of the green peach aphid (Myzus persicae) are sprayed with an active ingredient formulation of the desired concentration. After 6 days, the efficacy in % is determined. 100% means that all of the aphids have been killed; 0% means that none of the aphids have been killed.

The test system of data set [1] is adult engorged Boophilus microplus females of the SP-resistant Parkhurst strain. The data set can be described thus: Boophilus microplus test (DIP). The format is in vivo. The conditions noted are these: application rate 100 ppm, after 7 days. How it is done:
Boophilus microplus Test (DIP)
Test animals: adult engorged Boophilus microplus females of the SP-resistant Parkhurst strain
Solvent: dimethyl sulphoxide
10 mg of active ingredient are dissolved in 0.5 ml of dimethyl sulphoxide. For the purpose of preparing a suitable formulation, the active ingredient solution is diluted with water to the concentration desired in each case.
This active ingredient formulation is pipetted into tubes. 8-10 ticks are transferred into a further tube with holes. The tube is immersed into the active ingredient formulation, and all ticks are completely wetted. After the liquid has run out, the ticks are transferred onto filter discs in plastic dishes and stored in a climate-controlled room.
The activity is assessed after 7 days by laying of fertile eggs. Eggs whose fertility is not outwardly visible are stored in glass tubes in a climate-controlled cabinet until the larvae hatch. An efficacy of 100% means that none of the ticks has laid any fertile eggs.

The mark [2] stands for this setting: acidic range pH 2.7, acetonitrile (0.1% formic acid)/water gradient, calibration with unbranched alkan-2-ones.

Structures are written as SMILES.

In the case of `CCn1c(C(=O)NC(c2ccc(F)c(Br)c2)C(F)(F)F)cc2cc(C(=O)NC3CC3)c(Cl)cc21` (stereo not drawn) [Compound 12], the efficacy in % with Spodoptera frugiperda (application rate 100 g/ha) came out at 100%; in the data set on Tetranychus urticae (application rate 100 g/ha), 100%; in the data set on Phaedon cochleariae (application rate 100 g/ha), 100%; in the data set with Myzus persicae (application rate 100 g/ha) it was 90%. The log p in “logP (HPLC-MS)” (setting [2]) turned out to be 3.82. Besides, the “efficacy (kill in %)” value in the data set with Ctenocephalides felis, in the data set on Lucilia cuprina larvae and with adult Musca domestica was 100% throughout. The “efficacy (laying of fertile eggs)” value in the data set on Boophilus microplus is 100%.
For `CCc1cc2c(cc1C(=O)NC1(C#N)CC1)cc(C(=O)NC(c1cccc(C(F)(F)F)c1)C(F)(F)F)n2CC` (stereo not drawn) [Compound 282], the efficacy in % in the data set with Spodoptera frugiperda (application rate 100 g/ha) was found to be 100%; with Tetranychus urticae (application rate 100 g/ha), 100%; in the data set on Phaedon cochleariae (application rate 100 g/ha) it was 100%; in the data set on Myzus persicae (application rate 100 g/ha), 80%. In “logP (HPLC-MS)” (acidic range pH 2.7, EEC directive 79/831 Annex V.A8, two values = both regioisomers (G = N)), this compound had a log p of 3.98. Further, the “efficacy (kill in %)” value in the data set on Ctenocephalides felis was found to be 100%; in the data set with Lucilia cuprina larvae, 100%; with adult Musca domestica, 90%. Further, in the data set with Boophilus microplus, the “efficacy (laying of fertile eggs)” value was 100%.
For `CCn1c(C(=O)NC(c2ccc(F)c(Cl)c2)C(F)(F)F)cc2cc(C(=O)NC3CC3)c(Cl)cc21` (stereo not drawn) [Compound 18], the efficacy in % with Spodoptera frugiperda (application rate 100 g/ha) was determined as 100%; with Tetranychus urticae (application rate 100 g/ha), 90%; in the data set with Phaedon cochleariae (application rate 100 g/ha), 100%. The same compound came in with a log p in “logP (HPLC-MS)” (setting [2]) of 3.82. Also, the “efficacy (kill in %)” value in the data set with Ctenocephalides felis, in the data set with Lucilia cuprina larvae and with adult Musca domestica was 100% each time. Also, the “efficacy (laying of fertile eggs)” value in data set [1] worked out at 80%; in the data set on Boophilus microplus, 100%.
As for `CCn1c(C(=O)NC(c2ccc(F)c(Br)c2)C(F)(F)F)cc2cc(C(=O)NC3(C#N)CC3)c(C)cc21` (stereo not drawn) [Compound 191], the efficacy in % in the data set on Spodoptera frugiperda (application rate 100 g/ha) was 100%; with Tetranychus urticae (application rate 100 g/ha), 100%; in the data set on Phaedon cochleariae (application rate 100 g/ha) it was 100%; in the data set on Myzus persicae (application rate 100 g/ha), 90%. In the data set “logP (HPLC-MS)” (setting [2]), this compound had a log p of 3.71. The “efficacy (kill in %)” value with Ctenocephalides felis is reported as 100%; in the data set with Lucilia cuprina larvae it was 100%; in the data set with adult Musca domestica it was 90%. Besides, the “efficacy (laying of fertile eggs)” value in the data set with Boophilus microplus is 100%.
`CCn1c(C(=O)NC(c2ccc(F)c(Cl)c2)C(F)(F)F)cc2cc(C(=O)NC3CC3)c(C)cc21` (stereo not drawn) [Compound 192]: the efficacy in % in the data set on Spodoptera frugiperda (application rate 100 g/ha) is recorded as 100%; in the data set on Tetranychus urticae (application rate 100 g/ha) it was 100%; in the data set on Phaedon cochleariae (application rate 100 g/ha), 100%; with Myzus persicae (application rate 100 g/ha), 90%. Further, the log p in the data set “logP (HPLC-MS)” (setting [2]) is on record as 3.65. The “efficacy (kill in %)” value with Ctenocephalides felis, in the data set with Lucilia cuprina larvae and in the data set with adult Musca domestica was 100% in each case. In addition, in the data set with Boophilus microplus, the “efficacy (laying of fertile eggs)” value was 100%.
As for `C#CCn1c(C(=O)NC(c2ccc(F)c(C(F)(F)F)c2)C(F)(F)F)nc2cc(C(=O)NC3CC3)c(Cl)cc21` (stereo not drawn) [Compound 97], the efficacy in % with Spodoptera frugiperda (application rate 500 g/ha), in the data set with Tetranychus urticae (application rate 500 g/ha), with Phaedon cochleariae (application rate 500 g/ha) and in the data set with Myzus persicae (application rate 100 g/ha) was 100% in each case. Moreover, the log p in the data set “logP (HPLC-MS)” (setting [2]) is listed as 3.62. Moreover, the figures for the “efficacy (kill in %)” value with Ctenocephalides felis, with Lucilia cuprina larvae and with adult Musca domestica were 95%, 100% and 100%, respectively. Moreover, the “efficacy (laying of fertile eggs)” value in the data set on Boophilus microplus was found to be 100%.
As for `CCn1c(C(=O)NC(c2ccc(F)c(C(F)(F)F)c2)C(F)(F)F)nc2cc(C(=O)NC3CC3)c(Cl)cc21` (stereo not drawn) [Compound 38], the efficacy in % was 100% with Spodoptera frugiperda (application rate 500 g/ha); 100% in the data set on Tetranychus urticae (application rate 500 g/ha); 100% with Phaedon cochleariae (application rate 500 g/ha); 100% in the data set on Myzus persicae (application rate 100 g/ha); 90% with Myzus persicae (application rate 500 g/ha). The compound further had a log p in “logP (HPLC-MS)” (setting [2]) of 3.71. The “efficacy (kill in %)” value with Ctenocephalides felis, with Lucilia cuprina larvae and in the data set on adult Musca domestica was 100% in each case. The “efficacy (laying of fertile eggs)” value with Boophilus microplus amounted to 100%.
On to `CCn1c(C(=O)NC(c2cccc(Br)c2)C(F)(F)F)cc2cc(C(=O)NC3CC3)c(Cl)cc21` (stereo not drawn) [Compound 40], for which the efficacy in % in the data set with Spodoptera frugiperda (application rate 100 g/ha) is 100%; with Tetranychus urticae (application rate 100 g/ha), 100%; with Phaedon cochleariae (application rate 100 g/ha), 100%; in the data set on Myzus persicae (application rate 100 g/ha), 90%. This compound displayed a log p in “logP (HPLC-MS)” (setting [2]) of 3.71. Further, the “efficacy (kill in %)” value with Ctenocephalides felis and with Lucilia cuprina larvae was 100% each time. In addition, the “efficacy (laying of fertile eggs)” value in the data set with Boophilus microplus came out at 100%.
Take `CCn1c(C(=O)NC(c2cccc(OC(F)F)c2)C(F)(F)F)cc2cc(C(=O)NC3CC3)c(Cl)cc21` (stereo not drawn) [Compound 276]: the efficacy in % in the data set with Spodoptera frugiperda (application rate 100 g/ha) turned out to be 100%; with Tetranychus urticae (application rate 100 g/ha), 90%; with Phaedon cochleariae (application rate 100 g/ha) it was 100%; in the data set with Myzus persicae (application rate 100 g/ha), 90%. Besides, the log p in the data set “logP (HPLC-MS)” (setting [2]) turned out to be 3.48. Moreover, the “efficacy (kill in %)” value with Ctenocephalides felis, with Lucilia cuprina larvae and in the data set on adult Musca domestica was 100% in each case. Moreover, in the data set with Boophilus microplus, the “efficacy (laying of fertile eggs)” value is 100%.
With `Cn1c(C(=O)NC(c2ccc(F)c(Cl)c2)C(F)(F)F)cc2cc(C(=O)NC3(C#N)CC3)c(Cl)cc21` (stereo not drawn) [Compound 54], the efficacy in % in the data set on Spodoptera frugiperda (application rate 100 g/ha), with Tetranychus urticae (application rate 100 g/ha), with Phaedon cochleariae (application rate 100 g/ha) and with Myzus persicae (application rate 100 g/ha) was 100% each time. Also, the log p in the data set “logP (HPLC-MS)” (setting [2]) was determined as 3.52. Besides, the “efficacy (kill in %)” value in the data set on Ctenocephalides felis, in the data set with Lucilia cuprina larvae and in the data set on adult Musca domestica was 100% throughout. For the same compound, in the data set on Boophilus microplus, the “efficacy (laying of fertile eggs)” value worked out at 100%.
As for `CCn1c(C(=O)NC(c2ccc(F)c(Cl)c2)C(F)(F)F)nc2cc(C(=O)NC3CC3)c(Cl)cc21` (stereo not drawn) [Compound 37], the efficacy in % was 100% in the data set with Spodoptera frugiperda (application rate 500 g/ha), 100% in the data set with Tetranychus urticae (application rate 500 g/ha), 100% in the data set on Phaedon cochleariae (application rate 500 g/ha) and 90% in the data set with Myzus persicae (application rate 500 g/ha). In “logP (HPLC-MS)” (setting [2]), this compound returned a log p of 3.59. Moreover, the “efficacy (kill in %)” value with Ctenocephalides felis, in the data set with Lucilia cuprina larvae and with adult Musca domestica was 100% throughout. For the same compound, the “efficacy (laying of fertile eggs)” value in the data set with Boophilus microplus worked out at 100%.

Values taken from US9107411B2, “Indolecarboxamides and benzimidazolecarboxamides as insecticides and acaricides” (BAYER INTELLECTUAL PROPERTY GMBH, priority 2011, dated 2015).
